# Assay results reported in PMC5391968, “Comparison of cell-based assays for the identification and evaluation of competitive CXCR4 inhibitors” (PLoS ONE, 2017).
# Like-named read-outs stand apart in the source and are kept apart here.
# Experiments:
# CXCR4 [1] = molecular target: T1, CXCR4 (Homo sapiens, UniProt P61073); assay: Labeled CXCR4 monoclonal antibody binding (clones 12G5, 1D9), flow cytometry; parameters: CXCR4 receptors endogenously expressed on SUP-T1 cells; endogenous in cells; host or cells: SUP-T1 (ATCC); settings: 12G5 clone and 1D9 clone, data not shown
# Protocol: A feature of CXCR4, shared with many other GPCRs, is its internalization following agonist binding, also known as receptor endocytosis. To evaluate the potential inhibitory effect of the compounds on CXCR4 endocytosis, CXCR4 receptors endogenously expressed on SUP-T1 cells were first stained with a PE-labeled rat anti-human CXCR4 mAb targeting the receptor’s N-terminus (clone 1D9) and subsequently incubated with compound. […] In addition, when SUP-T1 cells were incubated with compound for thirty minutes at 4°C, and afterwards stained with the CXCR4 mAb (1D9) for thirty minutes at 4°C, no displacement (i.e. decrease in mAb binding) of the CXCR4 mAb was observed by flow cytometry (data not shown). […] In consequence, reduced cellular staining in our assay reflects the inhibitory effects of compounds on receptor internalization and not simply displacement of the CXCR4 mAb.
# CXCR4 [2] = molecular target: T1, CXCR4; assay: Calcium mobilization assay (FLIPR Tetra) in U87.CD4.CXCR4 cells; format: cell-based; settings: read-out: IC50 Calcium signaling (CXCL12-induced)
# Protocol: U87.CD4.CXCR4 cells were seeded at 2x10^4 cells per well in gelatin-coated black-walled 96-well plates [0.1% gelatin in DPBS, incubated at RT for two hours and washed once with DPBS] and incubated at 37°C and 5% CO2 overnight. […] Fluo-2 AM loaded cells were washed with assay buffer before being incubated in the FLIPR Tetra system at 37°C for five minutes. At the start of the kinetic measurement, compounds were added to the cell plate by the internal robotic system followed by an incubation period of 10 minutes during which changes in the intracellular calcium level were continuously measured by the FLIPR Tetra. […] Each condition was measured in triplicate and repeated several times as further indicated (see Results).
# CXCR4 [3] = molecular target: T1, CXCR4; assay: CXCR4 internalization assay in SUP-T1 cells; format: cell-based; parameters: CXCR4 receptors endogenously expressed on SUP-T1 cells; endogenous in cells; host or cells: SUP-T1 (ATCC); settings: for induction of CXCR4 internalization (agonistic effect): in absence of CXCL12, data not shown
# Protocol: T-lymphoblastic SUP-T1 cells were washed twice in DPBS containing 2% FBS. Afterwards, cells were first incubated with the PE-labeled rat anti-human CXCR4 mAb (clone 1D9; 2 μg/ml in DPBS/2% FBS; BD Pharmingen) on ice for 45 minutes. […] SUP-T1 cells were subsequently washed once with ice cold DPBS and twice with ice cold assay buffer (see above) before being treated with test compound on ice for 15 minutes. […] Samples were immediately analyzed with the FACSCalibur flow cytometer (Becton Dickinson) whereby the measured fluorescence corresponds to the amount of […] CXCR4 receptors. Data were further analyzed with the FlowJo software.
# HIV-1 NL4-3 (X4) [4] = assay: microbe, parasite or virus in culture; format: cell-based; settings: MT-4 cells, four days post infection, MTS, mean ± SEM, read-out: IC50 HIV-1 (X4) NL4-3 replication, MT-4 cells
# Protocol: The anti-HIV replication assays in MT-4 cells and PHA-stimulated PBMCs have been described previously. The HIV-1 T-tropic molecular clone NL4-3 (X4) was obtained from the National Institute of Allergy and Infectious Disease (NIAID) AIDS reagent program (Bethesda, MD, USA). Briefly, 5x10^4 MT-4 cells (in cell culture medium) were treated with different concentrations of compound at 37°C for 30 minutes. Afterwards, a 50% tissue culture infectious dose of the NL4-3 viral stock was added to the cell-compound mixtures. Four days post infection, the cytopathic effect was evaluated microscopically and cell viability was assessed with the MTS method, as described above.
# In the antiviral assays, each condition was tested in duplicate.
# HIV-1 NL4-3 (X4) [5] = assay: microbe, parasite or virus in culture; format: cell-based; settings: PHA-stimulated PBMCs, ten days post infection, p24 Ag ELISA, mean ± SEM, read-out: IC50 HIV-1 (X4) NL4-3 replication, PHA-stimulated PBMCs
# Protocol: PHA-stimulated PBMCs at 5x10^5 cells per sample, pre-incubated with test compounds dissolved in cell culture medium containing IL-2 (2 ng/ml; […] After three days, fresh culture medium with IL-2 was added. Ten days post infection cell supernatant was collected for HIV-1 p24 core antigen enzyme-linked immunosorbent assay (ELISA; Perkin Elmer, Boston, MA, USA) according to the manufacturer’s protocol. In the antiviral assays, each condition was tested in duplicate.
# CXCR4 [6] = molecular target: T1, CXCR4; assay: CXCL12^AF647 binding assay on Jurkat cells; settings: read-out: IC50 CXCL12-CXCR4 binding interaction
# Protocol: In brief, Jurkat cells were washed twice in assay buffer [Hank’s Balanced Salt Solution (HBSS; Thermo Fisher Scientific), 20 mM HEPES buffer (Thermo Fisher Scientific), 0.2% bovine serum albumin (Sigma-Aldrich), pH 7.4]. […] Afterwards, cells were washed twice in assay buffer and subsequently fixed in 1% paraformaldehyde in Dulbecco’s phosphate buffered saline (DPBS). Samples were analyzed with the FACSArray flow cytometer (Becton Dickinson, NJ, USA). Data were further analyzed with the FlowJo Software (Ashland, Oregon, USA).
# CXCR4 [7] = molecular target: T1, CXCR4; assay: CXCL12/CXCR4 interaction on SUP-T1 cells; format: binding; parameters: CXCR4 receptors endogenously expressed on SUP-T1 cells; endogenous in cells; host or cells: SUP-T1 (ATCC); settings: high concentration, data not shown
# [8] = tested on: CXCR4-positive Jurkat cells; assay: cells; format: cell-based, human; settings: read-out: IC50 Chemotaxis
# Protocol: Jurkat cells were washed twice in assay buffer (see above), dispensed into a 96-well plate (5x10^5 cells per well) containing serial dilutions of compounds (in assay buffer) and incubated at RT in the dark for 10 minutes. […] Suspensions of 1.87x10^4 cells were transferred to the chemotaxis insert plate. […] After removal of the insert plate, migrated cells were centrifuged and resuspended in DPBS containing flow cytometry cell counting beads ([…] Fluorescent Particles; Gentaur, London, UK). Both migrated cells and particles were counted by flow cytometry (FACSCanto II; Becton Dickinson). Each compound concentration was tested in triplicate. Data were analyzed using the FlowJo software and the total number of migrated cells was calculated, according to the counted and total number of beads present in the sample.
# in vitro [9] = format: cell-based; settings: human
# Protocol: Freshly isolated peripheral blood mononuclear cells (PBMCs) were isolated out of buffy coats from healthy donors (Red Cross, Belgium). They were cultured in RPMI medium with 10% FBS, 2 mM L-glutamine and stimulated with 2 μg/ml phytohemagglutinin (PHA; Sigma-Aldrich) for three days before use in the HIV replication assays (see below).
# Jurkat cells (3x10^5 cells per well in culture medium) were incubated with serial dilutions of compound at room temperature (RT) for two hours. Cytotoxicity of the compounds was also evaluated at 37°C over a longer period of time in MT-4 cells (5x10^4 cells per well in culture medium, four day incubation) and PHA-stimulated PBMCs (5x10^5 cells per well in culture medium, ten day incubation) because these cell types were used in anti-HIV activity assays which last up to ten days (see below). Each condition was tested in duplicate. Cytotoxicity was evaluated microscopically and, in addition, cell viability was assessed using the colorimetric CellTiter 96 AQueous One Solution Cell Proliferation Assay (Promega, Fitchburg, WI, USA), which is based on the reduction of the tetrazolium salt MTS [3-(4,5-dimethylthiazol-2-yl)-5-(3-carboxymethoxyphenyl)-2-(4-sulfophenyl)-2H-tetrazolium] to formazan by metabolically active cells. Absorbance at 490 nm was measured with the VersaMax ELISA Microplate Reader (Molecular Devices, Sunnyvale, CA, USA). […]
# in vitro [10] = format: cell-based; settings: human; remark: listed apart in the source
# Protocol: Jurkat cells (3x10^5 cells per well in culture medium) were incubated with serial dilutions of compound at room temperature (RT) for two hours. Cytotoxicity of the compounds was also evaluated at 37°C over a longer period of time in MT-4 cells (5x10^4 cells per well in culture medium, four day incubation) and PHA-stimulated PBMCs (5x10^5 cells per well in culture medium, ten day incubation) because these cell types were used in anti-HIV activity assays which last up to ten days (see below). Each condition was tested in duplicate. Cytotoxicity was evaluated microscopically and, in addition, cell viability was assessed using the colorimetric CellTiter 96 AQueous One Solution Cell Proliferation Assay (Promega, Fitchburg, WI, USA), which is based on the reduction of the tetrazolium salt MTS [3-(4,5-dimethylthiazol-2-yl)-5-(3-carboxymethoxyphenyl)-2-(4-sulfophenyl)-2H-tetrazolium] to formazan by metabolically active cells. Absorbance at 490 nm was measured with the VersaMax ELISA Microplate Reader (Molecular Devices, Sunnyvale, CA, USA). The cytotoxic concentration 50 (CC50) of each compound was calculated based on the absorbance of negative (i.e. cells without compound) and positive (i.e. only culture medium) control samples.
# T1 sequence (P61073 whole entry): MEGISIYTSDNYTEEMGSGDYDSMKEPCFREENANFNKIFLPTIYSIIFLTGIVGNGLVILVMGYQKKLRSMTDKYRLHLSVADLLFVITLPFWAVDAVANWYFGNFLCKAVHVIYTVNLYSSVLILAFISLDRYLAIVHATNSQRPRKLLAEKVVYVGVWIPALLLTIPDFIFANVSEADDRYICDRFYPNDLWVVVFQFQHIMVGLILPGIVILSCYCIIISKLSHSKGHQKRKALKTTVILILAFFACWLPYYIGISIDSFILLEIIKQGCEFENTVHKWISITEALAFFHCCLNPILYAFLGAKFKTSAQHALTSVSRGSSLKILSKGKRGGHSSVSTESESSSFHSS
reduction of labeled CXCR4 mAb binding (CXCR4 [1]),"IC50 (CXCR4 [2]; U87.CD4.CXCR4 cells, 6.25 nM CXCL12, mean ± SEM) [µM]",induction of CXCR4 internalization (agonistic effect) (CXCR4 [3]; 100 μM),"IC50 (CXCR4 [3]; SUP-T1 cells, 6.25 nM CXCL12, 37°C 30 minutes, mean ± SEM) [µM]",IC50 (HIV-1 NL4-3 (X4) [4]) [µM],IC50 (HIV-1 NL4-3 (X4) [5]) [µM],"IC50 (CXCR4 [6]; Jurkat cells, 2.9 nM CXCL12^AF647, mean ± SEM) [µM]","IC50 ([8]; Jurkat cells, 6.25 nM CXCL12, two hours, mean ± SEM) [µM]",Compound,inhibition of the interaction between CXCL12 and CXCR4 (CXCR4 [7]),IC50 (CXCR4 [2]) [µM],IC50 (CXCR4 [3]) [µM],induction of CXCR4 internalization (agonistic effect) (CXCR4 [3]; 10 μM),"IC50 (HIV-1 NL4-3 (X4) [4]; Human immunodeficiency virus 1, NL43, MT4, 96 h) [µM]","IC50 (HIV-1 NL4-3 (X4) [5]; Human immunodeficiency virus 1, NL43, PBMC, 240 h) [µM]",IC50 (CXCR4 [6]) [µM],CC50 at 10 days (in vitro [9]) [µM],CC50 at 2 h (in vitro [10]) [µM],CC50 at 4 days (in vitro [10]) [µM],"IC50 ([8]; Homo sapiens, Jurkat, 2 h) [µM]"
unable to reduce mAb binding,> 100,absence of an agonistic effect,> 100,> 100,38.2,> 100,> 100,c1ccc(NCc2ccc(CNc3ccccn3)cc2)nc1 [WZ811],"unable, even at high concentration, to inhibit the interaction between CXCL12 and CXCR4",–,–,–,–,–,–,–,–,–,–
–,–,–,–,–,–,–,–,CC(C)=CCC[C@]1(C)C=Cc2c(O)c3c(c(CC=C(C)C)c2O1)O[C@]12C(=C[C@@H]4C[C@H]1C(C)(C)O[C@@]2(C/C=C(/C)C(=O)O)C4=O)C3=O [gambogic acid],–,4.37,> 10,absence of an agonistic effect,> 0.376,> 0.225,7.06,~0.3,10,~0.3,1.89
